Assay results published in US9809623B2, “α4β7 peptide monomer and dimer antagonists” (Protagonist Therapeutics, Inc., priority 2014, dated 2017).

Columns and labels:
[1] = tested on: cell types in human whole blood; test: FACS binding specificity in human whole blood; type: cell-based; conditions: 1 nM, 1 mM MnCl2
Protocol: To further evaluate the selectivity of Peptide X in human blood, the fluorescent dye Alexa 647 was conjugated to Peptide X at the same position used for attaching biotin. […] Heparinized human whole blood was supplemented with 1 mM MnCl2, and stained with the Peptide X-Alexa 647 conjugate or biotinylated vedolizumab for 1 hour at room temperature. The samples were fixed (red blood cells lysed) and washed. The vedolizumab samples were stained separately with streptavidin Alexa 647 for stain for 30 minutes at room temperature. FACS analysis was used to assess binding of the peptide or vedolizumab to a broad panel of cell types including NK cells, basophils, monocytes, eosinophils, neutrophils, CD4 naïve T cells, CD4 memory T cells, CD8 naïve T cells, CD8 memory T cells, and B cells. […] The binding specificity for vedolizmab shown in Table 7 is also very similar to that reported in the literature (Soler et al, JPET 330:864-875, 2009).

[2] = tested on: αEβ7 integrin; test: FACS binding in cynomolgus monkey blood (α4β7 / αEβ7 expressing cells); type: cell-based; conditions: cyno blood, 1 nM
Protocol: Blood from cynomolgus monkeys was also analyzed by FACS.
Binding to αEβ7 integrin in cyno blood was also tested. Cyno blood was incubated with 1 nM Peptide X-Alexa 647, and cells expressing α4β7 or αEβ7 were analyzed by FACS. […] Binding to α4β7 was specific, because it could be blocked in the presence of a large excess (1 uM) of unlabeled Peptide X. Therefore under these conditions, it was concluded that Peptide X binds α4β7, not αEβ7.

[3] = biological target: α4β7 integrin (Homo sapiens, UniProt P13612+P26010, DEL724-798); test: Surface plasmon resonance (SPR), binding of soluble α4β7 integrin to immobilized biotin-labeled ligand
Sequence of α4β7 integrin (P13612 34-977 limits assumed, stated change not applied): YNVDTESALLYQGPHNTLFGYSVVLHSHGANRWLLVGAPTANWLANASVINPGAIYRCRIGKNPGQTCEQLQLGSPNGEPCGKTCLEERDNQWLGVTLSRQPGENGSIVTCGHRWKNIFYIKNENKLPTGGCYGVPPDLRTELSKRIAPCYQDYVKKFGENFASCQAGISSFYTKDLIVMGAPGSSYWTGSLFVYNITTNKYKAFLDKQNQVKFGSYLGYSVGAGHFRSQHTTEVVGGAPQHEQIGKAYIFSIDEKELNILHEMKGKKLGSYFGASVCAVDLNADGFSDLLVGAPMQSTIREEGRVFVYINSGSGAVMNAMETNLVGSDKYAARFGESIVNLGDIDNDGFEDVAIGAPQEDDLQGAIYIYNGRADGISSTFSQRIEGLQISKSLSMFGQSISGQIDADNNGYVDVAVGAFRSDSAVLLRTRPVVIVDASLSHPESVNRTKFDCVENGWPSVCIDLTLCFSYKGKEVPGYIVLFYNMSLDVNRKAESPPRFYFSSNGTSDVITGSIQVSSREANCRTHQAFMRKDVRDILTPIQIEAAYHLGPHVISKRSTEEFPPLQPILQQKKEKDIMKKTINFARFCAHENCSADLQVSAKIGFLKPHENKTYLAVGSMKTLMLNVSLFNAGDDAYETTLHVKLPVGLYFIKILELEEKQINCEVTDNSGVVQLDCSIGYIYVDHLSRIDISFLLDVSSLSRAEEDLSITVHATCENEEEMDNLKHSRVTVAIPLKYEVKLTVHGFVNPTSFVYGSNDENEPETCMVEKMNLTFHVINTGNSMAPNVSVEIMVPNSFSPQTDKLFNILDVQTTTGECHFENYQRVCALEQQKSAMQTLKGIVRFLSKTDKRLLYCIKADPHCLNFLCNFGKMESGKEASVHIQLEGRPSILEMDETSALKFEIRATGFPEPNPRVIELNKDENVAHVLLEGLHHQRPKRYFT
Sequence of α4β7 integrin (P26010 20-723 limits assumed, stated change not applied): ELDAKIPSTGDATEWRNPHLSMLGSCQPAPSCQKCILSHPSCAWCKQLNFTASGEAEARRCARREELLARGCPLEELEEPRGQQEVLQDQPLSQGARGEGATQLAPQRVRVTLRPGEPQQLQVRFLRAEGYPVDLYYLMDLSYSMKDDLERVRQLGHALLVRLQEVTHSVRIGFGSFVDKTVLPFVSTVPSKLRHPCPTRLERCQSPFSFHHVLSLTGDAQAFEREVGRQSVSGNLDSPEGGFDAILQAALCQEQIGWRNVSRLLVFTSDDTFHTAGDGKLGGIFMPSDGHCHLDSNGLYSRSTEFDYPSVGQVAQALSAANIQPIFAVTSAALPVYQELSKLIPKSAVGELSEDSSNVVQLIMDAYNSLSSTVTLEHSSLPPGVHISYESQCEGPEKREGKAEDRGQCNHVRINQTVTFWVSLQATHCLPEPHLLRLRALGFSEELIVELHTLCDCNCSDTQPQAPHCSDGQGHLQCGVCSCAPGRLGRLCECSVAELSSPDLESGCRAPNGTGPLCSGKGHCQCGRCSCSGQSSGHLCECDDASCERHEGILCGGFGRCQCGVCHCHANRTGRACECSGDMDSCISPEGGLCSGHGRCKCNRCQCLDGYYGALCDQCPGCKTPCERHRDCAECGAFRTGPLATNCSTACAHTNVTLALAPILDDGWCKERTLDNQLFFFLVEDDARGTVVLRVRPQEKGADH
Text: Surface plasmon resonance (SPR) was used to further evaluate the binding properties of Peptide X. An analog of Peptide X (Peptide X-biotin), which contains a biotin group attached to Peptide X via a PEG linker, was synthesized. Another peptide dimer having the following structure, which is closely related to Peptide X, was also synthesized and biotin-labeled:
• (Peptide Z). Vedolizumab was also chemically biotinylated. Peptide X-biotin, Peptide Z-biotin, or biotin-labeled vedolizumab antibody was immobilized to a streptavidin coated SPR chip, and the binding of soluble α4β7 integrin was measured. […] This half-life is quite long, and may be caused by a tight association between the peptide and the bound Mn^2+ metal ion on the integrin. […] In addition, the KD for Peptide X-biotin was substantially lower than that for Peptide Z-biotin.

Compound | Percent positive staining, Basophils [1] | Percent positive staining, CD4 memory T cells [1] | Percent positive staining, CD4 naïve T cells [1] | Percent positive staining, CD8 memory T cells [1] | Percent positive staining, CD8 naïve T cells [1] | Percent positive staining, CD19+ B cells [1] | Percent positive staining, Eosinophils [1] | Percent positive staining, Monocytes [1] | Percent positive staining, NK cells CD16+ 56+ [1] | Percent positive staining, Neutrophils [1] | Binding to α4β7+ and αEβ7+ CD4 memory T cells [2] | KD lower than that for biotin-labeled vedolizumab [3] | kd [3] | kon ([3]; read-out: ka)
CC(=O)N[C@@H]1C(=O)N(C)[C@@H](CCCNC(=N)N)C(=O)N[C@@H](CO)C(=O)N[C@@H](CC(=O)O)C(=O)N[C@@H]([C@@H](C)O)C(=O)N[C@@H](CC(C)C)C(=O)N[C@H](C(=O)N[C@@H](Cc2ccc(C(C)(C)C)cc2)C(=O)N[C@@H](CCC(=O)O)CC(=O)N[C@H](CCCCNC(=O)CN(CC(=O)NCCCC[C@@H](NC(=O)C[C@H](CCC(=O)O)NC(=O)[C@H](Cc2ccc(C(C)(C)C)cc2)NC(=O)[C@H]2NC(=O)[C@H](CC(C)C)NC(=O)[C@H]([C@@H](C)O)NC(=O)[C@H](CC(=O)O)NC(=O)[C@H](CO)NC(=O)[C@H](CCCNC(=N)N)N(C)C(=O)[C@@H](NC(C)=O)C(C)(C)SSC2(C)C)C(N)=O)C(=O)CCNC(=O)CCCCCC2(C)C(=CC=CC=CC3=[N+](CCCS(=O)(=O)[O-])c4ccc(S(=O)(=O)O)cc4C3(C)C)N(CCCS(=O)(=O)O)c3ccc(S(=O)(=O)O)cc32)C(N)=O)C(C)(C)SSC1(C)C (single isomer, unassigned) [Peptide X-Alexa 647] | 87% | 20% | 51% | 36% | 52% | 78% | 92% | 7% | 45% | 0.35% | bound to α4β7^+, but not αEβ7^+ cells | – | – | –
CC(=O)N[C@@H]1C(=O)N(C)[C@@H](CCCNC(=N)N)C(=O)N[C@@H](CO)C(=O)N[C@@H](CC(=O)O)C(=O)N[C@@H]([C@@H](C)O)C(=O)N[C@@H](CC(C)C)C(=O)N[C@H](C(=O)N[C@@H](Cc2ccc(C(C)(C)C)cc2)C(=O)N[C@@H](CCC(=O)O)CC(=O)N[C@H](CCCCNC(=O)CN(CC(=O)NCCCC[C@@H](NC(=O)C[C@H](CCC(=O)O)NC(=O)[C@H](Cc2ccc(C(C)(C)C)cc2)NC(=O)[C@H]2NC(=O)[C@H](CC(C)C)NC(=O)[C@H]([C@@H](C)O)NC(=O)[C@H](CC(=O)O)NC(=O)[C@H](CO)NC(=O)[C@H](CCCNC(=N)N)N(C)C(=O)[C@@H](NC(C)=O)C(C)(C)SSC2(C)C)C(N)=O)C(=O)CCNC(=O)CCOCCOCCOCCOCCNC(=O)CCCC[C@@H]2SC[C@@H]3NC(=O)N[C@@H]32)C(N)=O)C(C)(C)SSC1(C)C [Peptide X-biotin] | – | – | – | – | – | – | – | – | – | – | – | 3.8 fold | 0.0000173 s⁻¹ | 1120 M⁻¹ s⁻¹
